Among the data in publication PMC10380194, “Conferring High IAA Productivity on Low-IAA-Producing Organisms with PonAAS2, an Aromatic Aldehyde Synthase of a Galling Sawfly, and Identification of Its Inhibitor” (Insects, 2023) are Ki and IC50 values, retold here.

For one assay, the target named is T1, PonAAS2.
T1 construct: recombinant, fusion protein with trigger factor (pCOLD TF)
Nature of the assay: enzyme inhibition of Trp→IAAld conversion, Lineweaver-Burk kinetics (IC50 […]). In kind it is biochemical, Pontania sp.

The next assay deals with T2, PonAAS1.
T2 construct: recombinant, fusion protein with trigger factor (pCOLD TF)
Nature of the assay: enzyme inhibition of 5-HTrp→serotonin conversion, dose-response. The assay is classed as biochemical, Pontania sp.

In turn, `Oc1ccccc1-c1nc(-c2ccc3c(c2)CCO3)n[nH]1` [HTS10550, 2-[3-(2,3-dihydro-1-benzofuran-5-yl)-1H-1,2,4-triazol-5-yl]phenol] had a Ki on PonAAS2 of 0.2 µM. Further, the IC50 against PonAAS1 is around 20 µM.
